Test results from ChEMBL document CHEMBL1149235, “Tetrahydronaphthalene-derived amino alcohols and amino ketones as potent and selective inhibitors of the delayed rectifier potassium current IKs” (Bioorg Med Chem Lett, 2004).

How the values were obtained:
[1] = Inhibitory activity against slow component of delayed rectifier potassium current IKs in guinea pig ventricular myocytes; type: cell-based, Cavia porcellus, Ventricular myocyte
[2] = Inhibition of rapid component of delayed rectifier potassium current IKr in guinea pig ventricular myocytes; type: cell-based, Cavia porcellus, Ventricular myocyte
[3] = Cavia porcellus, Ventricular myocyte

For `O=C1c2ccc(Oc3ccccc3)cc2CCC1CCN1CCC(c2ccccc2)CC1` (stereo unspecified), which IC50 [1, 3] is on record?
The IC50 was 1500 nM.

For `O=C1c2ccc(-c3ccccc3)cc2CCC1CCN1CCC(c2ccccc2)CC1` (stereo unspecified), which IC50 [1, 3] is on record?
Its IC50 is 2400 nM.

Which IC50 [1, 3] does the source give for `COc1ccc2c(c1)CCC(CN1CCC(c3ccccc3)CC1)C2=O` (stereo unspecified) here?
Its IC50 is 5000 nM.

What about the IC50 [2, 3] of the same compound?
The IC50 was 4000 nM.

With `O=C1c2ccc(OCc3cccc(-c4ccccc4)c3)cc2CCC1CCN1CCC(c2ccccc2)CC1` (stereo unspecified) as the compound, how does the IC50 [1, 3] read?
The IC50 was 470 nM.

Which IC50 [1, 3] does the source give for `O=C1c2ccc(OCc3ccccn3)cc2CCC1CCN1CCC(c2ccccc2)CC1` (stereo unspecified) here?
Its IC50 is 1300 nM.

With `O[C@H]1c2ccc(OCc3ccccc3-c3ccccc3)cc2CC[C@H]1CCN1CCC(c2ccccc2)CC1` as the compound, how does the IC50 [1, 3] read?
The IC50 was 390 nM.

With `O=C1c2ccc(OCc3cccnc3)cc2CCC1CCN1CCC(c2ccccc2)CC1` (stereo unspecified) as the compound, how does the IC50 [1, 3] read?
Its IC50 is 380 nM.

Which IC50 [1, 3] does the source give for `O=C1c2ccc(OCc3ccc(-c4ccccc4)cc3)cc2CCC1CCN1CCC(c2ccccc2)CC1` (stereo unspecified) here?
Its IC50 is 1000 nM.

For `O=C1c2ccc(OCc3ccncc3)cc2CCC1CCN1CCC(c2ccccc2)CC1` (stereo unspecified), which IC50 [1, 3] is on record?
Its IC50 is 200 nM.

Which IC50 [1, 3] does the source give for `O=C1c2ccc(OCc3ccccc3)cc2CCC1CC(=O)N1CCC(c2ccccc2)CC1` (stereo unspecified) here?
Its IC50 is over 30000 nM.

For `O=C1c2ccc(OCc3ccccc3-c3ccccc3)cc2CCC1CCN1CCC(c2ccccc2)CC1` (single isomer, unassigned), which IC50 ([1]; ventricular myocyte) is on record?
Its IC50 is 340 nM.

And the IC50 ([2]; ventricular myocyte)?
The IC50 was 1600 nM.

For `OC1c2ccc(OCc3ccccc3)cc2CCC1CCN1CCC(c2ccccc2)CC1` (single isomer, unassigned), which IC50 ([1]; ventricular myocyte) is on record?
The IC50 was 1300 nM.

And the IC50 ([2]; ventricular myocyte)?
Its IC50 is 110 nM.

Which IC50 ([1]; ventricular myocyte) does the source give for `COc1ccc2c(c1)CCC(CCN1CCC(c3ccccc3)CC1)C2=O` (single isomer, unassigned) here?
The IC50 was 1700 nM.

For `O[C@@H]1c2ccc(OCc3ccccc3-c3ccccc3)cc2CC[C@H]1CCN1CCC(c2ccccc2)CC1` (stereo in doubt), which IC50 ([1]; ventricular myocyte) is on record?
Its IC50 is 1000 nM.

What does the source list for `OC1c2ccc(OCc3ccccc3)cc2CCC1CCN1CCC(c2ccccc2)CC1` (stereo in doubt; 7b)?
IC50 ([1]; ventricular myocyte): 150 nM; IC50 [2, 3]: 170 nM

With `COc1ccc2c(c1)CCC(CCN1CCC(c3ccccc3)CC1)C2=O` (stereo in doubt; 8a) as the compound, how does the IC50 ([1]; ventricular myocyte) read?
Its IC50 is 400 nM.

What about the IC50 [2, 3] of the same compound?
Its IC50 is 1700 nM.

What does the source list for `O=C1c2ccc(OCc3ccccc3)cc2CCC1CCN1CCC(c2ccccc2)CC1` (stereo in doubt; 8b)?
IC50 ([1]; ventricular myocyte): 69 nM; IC50 ([2]; ventricular myocyte): 160 nM

What does the source list for `O=C1c2ccc(OCc3ccccc3-c3ccccc3)cc2CCC1CCN1CCC(c2ccccc2)CC1` (stereo in doubt; 10d)?
IC50 ([1]; ventricular myocyte): 30 nM; IC50 ([2]; ventricular myocyte): 260 nM

With `O[C@@H]1c2ccc(OCc3ccccc3-c3ccccc3)cc2CC[C@H]1CCN1CCC(c2ccccc2)CC1` (stereo in doubt; 14a) as the compound, how does the IC50 ([1]; ventricular myocyte) read?
The IC50 was 37 nM.
